Results published in ChEMBL document CHEMBL4321852, “Structure-Based and Property-Driven Optimization of N-Aryl Imidazoles toward Potent and Selective Oral RORγt Inhibitors” (J Med Chem, 2019).
Converted amounts (≈) assume the structure as drawn.

Assays:
[1] = Intrinsic clearance in rat liver microsomes; format: ADME, Microsome; conditions: read-out: CLH
[2] = Lipophilicity of the compound, high-throughput logP using octanol-coated immobilized artificial membranes at pH 7.4; format: physicochemical
[3] = Equilibrium aqueous solubility of the compound in pH 6.8 solution; format: physicochemical; conditions: aqueous pH 6.8 solution
[4] = Distribution coefficient of the compound, high-throughput logD using octanol-buffer at pH 7.4 by LC-MS/MS analysis shake flask method; format: physicochemical
Cytochrome P450 3A4 = Cytochrome P450 3A4 (Homo sapiens, UniProt P08684); assay: Time dependent inhibition of CYP3A4 (unknown origin); format: ADME; parameters: concentration or dose not given beside the values
[5] = Inverse agonist activity at RORgammat in rat whole blood assessed as reduction in Con A/IL-23-stimulated IL-17 secretion after 72 hrs by ELISA
[6] = Inhibition of RORgammat in rat CD4+ T-cells polarized with Th17 cytokine mix assessed as inhibition of IL-17 secretion
[7] = Dose normalized Cmax in Sprague-Dawley rat at 3 mg/kg, po; format: ADME, organism-based; conditions: in vivo
[8] = Tmax in Sprague-Dawley rat at 3 mg/kg, po; format: ADME, organism-based; conditions: in vivo
[9] = Volume of distribution at steady state in Sprague-Dawley rat at 1 mg/kg, iv; format: ADME, organism-based; conditions: in vivo, read-out: Vdss
[10] = Clearance in Sprague-Dawley rat at 1 mg/kg, iv; format: ADME, organism-based; conditions: in vivo
[11] = Dose normalized AUC in Sprague-Dawley rat at 3 mg/kg, po; format: ADME, organism-based; conditions: in vivo
[12] = Dose normalized AUC in Sprague-Dawley rat at 1 mg/kg, iv; format: ADME, organism-based; conditions: in vivo
[13] = Oral bioavailability in Sprague-Dawley rat at 3 mg/kg; format: ADME, organism-based; conditions: in vivo
[14] = Terminal half life in Sprague-Dawley rat at 1 mg/kg, iv; format: ADME, organism-based; conditions: in vivo, read-out: beta t1/2 (converted)

Cytochrome P450 3A4, sequence (P08684 whole entry): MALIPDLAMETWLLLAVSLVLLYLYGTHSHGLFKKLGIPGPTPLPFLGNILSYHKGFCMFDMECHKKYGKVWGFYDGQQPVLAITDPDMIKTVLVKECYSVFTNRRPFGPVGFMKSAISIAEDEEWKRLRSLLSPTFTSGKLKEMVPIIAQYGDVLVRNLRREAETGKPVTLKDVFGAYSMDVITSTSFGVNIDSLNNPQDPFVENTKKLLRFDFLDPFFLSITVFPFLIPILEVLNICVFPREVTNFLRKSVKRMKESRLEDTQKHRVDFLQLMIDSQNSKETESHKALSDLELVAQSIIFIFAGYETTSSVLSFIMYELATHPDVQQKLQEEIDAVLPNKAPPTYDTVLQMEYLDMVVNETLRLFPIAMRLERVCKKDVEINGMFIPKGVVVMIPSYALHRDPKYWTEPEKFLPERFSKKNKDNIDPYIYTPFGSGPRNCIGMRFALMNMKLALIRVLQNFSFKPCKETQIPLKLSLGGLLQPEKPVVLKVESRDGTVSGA

Compound	microsomal CLint [1] [µL/min/mg]	logD [2]	solubility thermodynamic [3] [µM]	logD [4]	IC50 [5] [nM]	IC50 [6] [nM]	other results
CC(C)Cc1cn(-c2c(C#N)cccc2C#N)c(-c2cnco2)n1	153	2	350 (≈ 111 µg/mL)	2	–	–	–
Cc1c(C(F)(F)F)nc(-c2ccc(Cl)o2)n1-c1c(Cl)ccc(N2CC(C(N)=O)C2)c1Cl (single isomer, unassigned; atropisomer)	169	4.9	40 (≈ 19.7 µg/mL)	4.9	–	–	–
Cc1c(C2(C(F)(F)F)CC2)nc(-c2ccc(Cl)o2)n1-c1c(Cl)ccc(NCC(C)(C)C(=O)O)c1Cl (single isomer, unassigned; atropisomer)	–	–	–	3.2	79	306	K (Cytochrome P450 3A4): 0.011 min⁻¹
Cc1c(CC(C)C)nc(-c2ccc(Cl)o2)n1-c1c(Cl)ccc(N2CC(C(=O)O)C2)c1Cl (single isomer, unassigned; atropisomer)	222	3	690 (≈ 333 µg/mL)	3	–	–	Cmax/dose [7]: 166 nM; Tmax [8]: 36 min; Vd [9]: 3.6 L/kg; clearance [10]: 228 mL/min/kg; AUC/dose [11]: 70 nM·h; AUC/dose [12]: 156 nM·h; bioavailability [13]: 45%; half-life [14]: 12 min
Cc1c(C(F)(F)F)nc(-c2ccc(Cl)o2)n1-c1c(Cl)cccc1Cl	722	6.3	< 4	6.3	–	–	–
N#Cc1cccc(C#N)c1-n1cc(C2CC2)nc1-c1cnco1	33	1.1	> 1000	1.1	–	–	–
Cc1c(Cc2ccccc2)nc(-c2ccco2)n1-c1c(Cl)cccc1Cl	–	> 6.9	–	–	82	56	–
Cc1c(C(F)(F)F)nc(-c2ccc(Cl)o2)n1-c1c(Cl)ccc(N2CC(c3nnn[nH]3)C2)c1Cl	49	2.5	> 1000	2.5	–	–	–
CCOC(=O)C(C)N(C(=O)c1cccs1)c1c(C)cccc1Cl (racemic)	–	3.6	–	–	–	–	–
Cc1c(C(F)(F)F)nc(-c2ccc(Cl)o2)n1-c1c(Cl)ccc(N2CC(C(=O)O)C2)c1Cl (single isomer, unassigned; atropisomer)	56	2.4	> 1000	2.4	4510	1690	Cmax/dose [7]: 181 nM; Tmax [8]: 78 min; Vd [9]: 4 L/kg; clearance [10]: 30 mL/min/kg; AUC/dose [11]: 945 nM·h; AUC/dose [12]: 1179 nM·h; K (Cytochrome P450 3A4): 0.047 min⁻¹; bioavailability [13]: 80%; half-life [14]: 276 min
Cc1c(CC(C)C)nc(-c2ccco2)n1-c1c(Cl)cccc1Cl	693	> 6.9	< 4	> 6.9	294	325	–
CC(C)OC(=O)[C@H](C)N(C(=O)c1ccco1)c1c(Cl)cccc1Cl	–	4.1	–	–	–	–	–
Cc1c(C(F)(F)F)nc(-c2ccc(Cl)o2)n1-c1c(Cl)ccc(N2CC(CC(=O)O)C2)c1Cl	–	–	–	2.5	696	869	K (Cytochrome P450 3A4): > 0.1 min⁻¹
